Earlier results as cited in US20130195797A1, “HIGH POTENCY FORMULATIONS OF VX-950” (VERTEX PHARMACEUTICALS INCORPORATED, priority 2012, published 2013).

Test system: HCV
Conditions: clinical trials

CCC[C@H](NC(=O)[C@@H]1[C@H]2CCC[C@H]2CN1C(=O)[C@@H](NC(=O)[C@@H](NC(=O)c1cnccn1)C1CCCCC1)C(C)(C)C)C(=O)C(=O)NC1CC1 [VX-950]
antiviral activity / effective therapy against HCV: has shown antiviral activity
